In patent publication US20060058383A1 (priority 2004, published 2006):

Tests used:
[1] = system: human leukemia HL-60 cell line; experiment: Depletion of cellular ATP pool (PCA extraction, HPLC); assay type: cell-based
Description: (§1) Cells were incubated with the indicated concentrations of S-Glycolycin or 3-BrPA for 12 h. Cellular ATP was extracted by 0.4 N PCA, neutralized with KOH, and quantified by HPLC analysis. […] Incubation of cells with 0.03 mM S-Glycolycin completely depleted cellular ATP in both cell lines, while it required a 10-fold greater concentration (0.3 mM) of 3-BrPA to achieve the same degree of ATP depletion.

[2] = system: respiration-deficient subclone HL-60/C6F cells; experiment: as above; assay type: cell-based, human; details: 12 h incubation
Description: as §1

HL-60 cells = experiment: Induction of apoptosis, annexin-V/PI flow cytometry; assay type: cell-based, human; details: 30 μM; 24 h
Description: HL-60 cells were incubated with the indicated concentrations of S-Glycolycin or 3-BrPA for 24 h. Apoptosis was measured by double staining with annexin-V and PI, followed by flow cytometry analysis. […] Incubation of HL-60 cells with 30 μM of S-Glycolycin caused more 90% cells to undergo apoptosis in 24 h, whereas the same concentration of 3-BrPA killed less than 20% of the cells within the same time period.

[3] = system: BAD phosphorylation (Ser112) in HL-60 cells; experiment: BAD phosphorylation at Ser112, western blot; assay type: cell-based, human
Description: HL-60 cells were incubated with the indicated concentrations of each compound for 3 h. BAD and its phosphorylation at Ser112 were measured by western blot analysis, using the respective antibodies. β-Actin was also blotted as the protein loading control.
A time- and dose-dependent effect of S-Glycolycin on the expression level of pro-apoptotic factor BAD and its phosphorylation at Ser112 is provided in FIG. 18. HL-60 cells were incubated with the indicated concentrations of S-Glycolycin for various times. Total BAD protein and its phosphorylation at Ser112 were measured by western blot analysis using the respective antibodies. β-actin was also blotted as the protein loading control. […] Note that severe ATP depletion can be induced by S-Glycolycin at 30-50 μM, but not at 10 μM (FIG. 15).

HL-60/AR cells = experiment: MTT cytotoxicity, drug-resistant clone versus parental cells; assay type: cell-based, human; details: MTT assay
Description: HL-60 cell line and its drug-resistant clone HL-60/AR were incubated with the indicated concentrations of doxorubicin, vincristine, and 3-BrPA for 72 h. Cytotoxicity was measured by MTT assay. […] Based on the teachings provided herein, studies may be performed to determine the sensitivity of HL-60/AR cells to Glycolycin.
Ara-C, a drug commonly used in the frontline treatment of leukemia, was used in parallel experiments. Cytotoxicity was measured by MTT assay.

[4] = system: human brain tumor cells (U87MG); experiment: MTT assay, 72 hour incubation; assay type: cell-based; details: U-87 MG
Description: (§2) The effect of Glycolycin on human colon cancer cells (HCT116) and human brain tumor cells (U87MG) were tested using MTT assays for a 72 hour incubation. […] The IC50 value of S-Glycolycin for brain tumor U87MG cells is approximately 30 μM. […] This is of clinical significance, since the majority of human cancers are defective in p53 function and show reduced response to radiotherapy and certain anticancer agents.

[5] = system: human colon cancer cells (HCT116); experiment: MTT assay, 72 hour incubation; assay type: cell-based; details: HCT-116
Description: as §2

[6] = system: colon cancer cells without p53 expression; experiment: Sensitivity of colon cancer cells without p53; assay type: cell-based, human; details: separate experiment
Description: as §2

[7] = system: human colon cancer cells (HCT116); experiment: Colony formation under hypoxic conditions, with radiation; assay type: cell-based
From the text: It is known in the art that under hypoxic conditions, cancer cells become less sensitive to radiation therapy, partially due to up-regulation of expression of survival factors and less generation of free radicals without oxygen. However, under hypoxic conditions cancer cells depend on glycolysis for generation of ATP, which is the essential energy source for repair of the DNA damage caused by radiation. Thus, it is contemplated that Glycolycin can effectively deplete cellular ATP pool under hypoxic conditions and enhance the therapeutic activity of radiation. […] Combination of Glycolycin and radiation almost completely killed all cells plated (up to 200,000 cells/well). Thus, Glycolycin is an effective agent to enhance the effectiveness of radiotherapy.

[8] = system: human lymphoma cells (Raji); experiment: Sensitivity under hypoxic versus normoxic conditions, annexin-V/PI assay 24 h; assay type: cell-based; details: 40 μM
Description: (Annexin-V/PI assay, 24 h)
Cancer cells in solid tumors have to adapt to the hypoxia environment due to insufficient blood supply. Under hypoxia conditions, cancer cells use the glycolytic pathway to generate ATP without consuming oxygen. This metabolic adaptation also renders cancer cells relatively resistant to anticancer agents and radiation therapy, partially due to up-regulation of expression of cell survival factors such as HIF-1α. […] However, because under hypoxia condition cancer cells dependent on glycolysis for generation of ATP, it is contemplated that such cancer cells are vulnerable to glycolytic inhibition by Glycolycin. […] Thus, it is envisioned that Glycolycin can be use for effective treatment of many solid tumors, either as a single agent or in combination with other anticancer agents.

[9] = system: HL-60 cells with high Bcl-2 expression; experiment: MTT growth inhibition of Bcl-2 transfected cells; assay type: cell-based, human; details: MTT assay
Description: Cell growth inhibition was measured by MTT assay.
Increased expression of the anti-apoptotic molecule Bcl-2 has been associated with drug resistance in cancer cells. The over-expression of Bcl-2 in HL-60 cells was […] against the cytotoxic effect of S-Glycolycin. […] Thus, Glycolycin may be used to overcome drug resistance due to Bcl-2 over expression.

parental HL-60 cells = experiment: Effect of glutamine on cytotoxic activity, apoptosis at 24 h; assay type: cell-based, human; details: 1 mM glutamine for 2 h
Description: (§3) The effect of glutamine on the cytotoxic activity of S-Glycolycin in wild-type HL-60 cells and respiration-deficient C6F cells was compared. Parental HL-60 cells were incubated with the indicated concentrations of S-Glycolycin in the presence or absence of 1 mM glutamine for 2 h, washed, and re-cultured in fresh medium. Apoptosis was measured at 24 h. […] In FIG. 26, the respiration-deficient cells (HL-60-C6F) were incubated with the indicated concentrations of S-Glycolycin in the presence or absence of 1 mM glutamine for 2 h, washed, and re-cultured in fresh medium. Apoptosis was measured at 24 h. Thus, glutamine supplement offers some degree of protection for cells with competent mitochondrial function.

[10] = system: respiration-deficient C6F cells (HL-60-C6F); experiment: as above; assay type: cell-based, human; details: 1 mM glutamine for 2 h
Description: as §3

primary CLL cells = experiment: MTT assay in primary leukemia cells; assay type: cell-based, human
[11] = system: BAD phosphorylation in primary CLL cells; experiment: BAD dephosphorylation in primary leukemia cells, western blot; assay type: cell-based, human

## O=C(O)O.O=C([O-])C(=O)CBr.[Na+] [S-Glycolycin, Sodium 3-bromo-2-oxopropionate carbonic acid]
[1]; 12 h incubation, HL-60
  concentration that completely depleted cellular ATP: 0.03 mM
[1]; not at 10 μM
  concentration inducing severe ATP depletion: 30 to 50 µM
[2]
  concentration that completely depleted cellular ATP: 0.03 mM
HL-60 cells
  cells undergoing apoptosis: > 90%
[3]; 10 μM
  change in BAD / phosphorylation at Ser112: did not cause any significant change
[3]; 50 μM
  change in BAD / phosphorylation at Ser112: almost complete dephosphorylation
[3]; 3 h incubation
  dephosphorylation of BAD, comparison: more effective than 3-BrPA
HL-60/AR cells
  sensitivity of HL-60/AR compared to parental HL-60 cells: equally sensitive
[4]
  IC50: ~30 µM
[5]
  IC50: 5 to 10 µM
[6]
  sensitivity compared with p53-expressing colon cancer cells: similarly sensitive
[7]; 40 μM in combination with radiation (6 Gy), hypoxic conditions
  reduced colony formation: more than 99.9%
[7]; drug alone, hypoxic versus normoxic
  sensitivity under hypoxic conditions: more sensitive
[8]
  sensitivity under hypoxic versus normoxic conditions: significantly more sensitive
[9]
  sensitivity of Bcl-2 transfected cells compared to transfected control (Neo): remain sensitive
Parental HL-60 cells
  protection by glutamine from cytotoxic effect: partial protection
[10]
  protection by glutamine from cytotoxic effect: no protection
Primary CLL cells
  killing CLL cells as measured by IC50 values, comparison: more potent than 3-BrPA
[11]
  BAD dephosphorylation, comparison: more active than 3-BrPA
